One assay has as its target T1, human RET kinase (Homo sapiens, UniProt P07949).
T1 construct: purchased Carna 08-159
The experiment in a line: RET Kinase Assay (LanthaScreen TR-FRET enzymatic assay). The format is biochemical. As to conditions: 7 nM RET, 23 μM ATP. A digest of the protocol:
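Human RET (7 nM) preincubated 15 min with compound in 50 mM HEPES pH 7.5, 0.0015% Brij-35, then reacted with 3 μM FAM-P2 peptide and 23 μM ATP for 1 h at 28° C.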
A general note: In TR-FRET formats the signal depends on donor and acceptor labels being close together.

In a further assay the target is T2, BAF3-KIF5B-RET cells (Homo sapiens, UniProt P07949).
T2 construct: fused on or other part: P33176 (Kinesin-1 heavy chain)
T2 sequence (P07949 whole entry, change not shown, the tested form may be a part): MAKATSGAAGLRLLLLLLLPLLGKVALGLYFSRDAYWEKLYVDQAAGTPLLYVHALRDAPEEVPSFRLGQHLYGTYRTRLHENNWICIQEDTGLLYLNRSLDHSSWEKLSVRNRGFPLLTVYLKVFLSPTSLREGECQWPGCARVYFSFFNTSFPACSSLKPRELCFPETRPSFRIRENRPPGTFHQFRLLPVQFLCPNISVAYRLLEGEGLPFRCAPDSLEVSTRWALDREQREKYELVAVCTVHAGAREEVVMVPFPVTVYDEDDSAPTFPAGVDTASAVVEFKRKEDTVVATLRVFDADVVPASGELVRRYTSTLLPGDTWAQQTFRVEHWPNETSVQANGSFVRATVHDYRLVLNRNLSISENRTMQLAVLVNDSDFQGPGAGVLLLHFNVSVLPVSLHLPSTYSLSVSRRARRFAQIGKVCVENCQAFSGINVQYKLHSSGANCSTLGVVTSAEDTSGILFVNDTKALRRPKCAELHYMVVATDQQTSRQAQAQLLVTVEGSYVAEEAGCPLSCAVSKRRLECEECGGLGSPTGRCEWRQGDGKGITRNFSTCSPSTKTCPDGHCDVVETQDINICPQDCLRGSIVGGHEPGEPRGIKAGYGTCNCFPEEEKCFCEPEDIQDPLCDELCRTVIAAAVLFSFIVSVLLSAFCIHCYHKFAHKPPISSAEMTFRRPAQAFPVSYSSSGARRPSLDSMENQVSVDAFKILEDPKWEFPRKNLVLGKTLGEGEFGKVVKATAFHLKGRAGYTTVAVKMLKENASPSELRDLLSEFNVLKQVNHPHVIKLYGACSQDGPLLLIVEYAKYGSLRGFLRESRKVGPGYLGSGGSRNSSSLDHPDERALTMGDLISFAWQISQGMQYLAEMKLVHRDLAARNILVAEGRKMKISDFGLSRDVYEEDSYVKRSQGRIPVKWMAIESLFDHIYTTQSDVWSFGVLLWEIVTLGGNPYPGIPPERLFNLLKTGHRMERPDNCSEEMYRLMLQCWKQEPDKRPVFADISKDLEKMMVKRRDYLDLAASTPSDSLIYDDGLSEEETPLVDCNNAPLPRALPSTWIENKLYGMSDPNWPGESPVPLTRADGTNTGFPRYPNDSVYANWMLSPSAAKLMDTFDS
The experiment in a line: BAF3-KIF5B-RET Cell proliferation assay (CellTiter-Glo, 72 hours). The format is cell-based. As to conditions: growth inhibition, read-out: BA/F3-KIF5B-RET Cellular activity. How it is done:
Compounds disclosed herein were tested for the inhibition of RET by a cancer cell proliferation assay commonly known as CellTiter-Glo assay. In this assay, a complete media was prepared by adding 10% fetal bovine serum to RPMI-1640 medium (Life technology) for BAF3-FIF5B-RET cells. BAF3-KIF5B-RET cells were added to each of 88 wells of a 96 well plate at a seeding density of 2,000 cells/well/95 μL. The cells were allowed to attach to the plate by incubating at 37° C. for 24 hours. The compound was dissolved in DMSO (SIGMA). A solution of test compound was prepared in complete media by serial dilution to obtain the following concentrations: 20 μM, 6.67 μM, 2.22 μM, 0.74 μM, 0.25 μM, 0.082 μM, 0.027 μM, 0.0091 μM and 0.0030 μM. The test compound solution (5 μL) was added to each of 80 cell-containing wells. The final concentrations of the compound were following: 1 μM, 0.33 μM, 0.11 μM, 0.037 μM, 0.012 μM, 0.0041 μM, 0.0014 μM, 0.00046 μM and 0.00015 μM. The final concentration of DMSO is 0.1%. To the 8 remaining cell-containing wells, only complete media (containing 0.1% DMSO) was added to form a control group in order to measure maximal proliferation. To the remaining 8 empty wells, complete media was added to for a vehicle control group in order to measure background. The plates were incubated at 37° C. for 72 hours. 50 μl of CellTiter-Glo® Reagent was added to each well. Mix contents for 2 minutes on an orbital shaker to induce cell lysis. Incubate at room temperature for 10 minutes to stabilize luminescent signal. Record luminescence on Paradigm. Cell viability (CV %) was calculated relative to vehicle (DMSO) treated control wells. The IC50 was calculated using GraphPad Prism.
(In general: Cellular ATP, detected with luciferase, serves as a proxy for viable cell number.)

The next assay concerns the target T3, human KDR kinase (Homo sapiens, UniProt P35968).
T3 construct: purchased Carna 08-191
The experiment in a line: KDR Kinase Assay (LanthaScreen TR-FRET enzymatic assay). The format is biochemical. Particulars: 1.2 nM KDR, 92 μM ATP. A digest of the protocol: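 Recombinant human KDR (1.2 nM) preincubated 15 min at room temperature with compound, then reacted with 3 μM FAM-P22 peptide and 92 μM ATP in 50 mM HEPES pH 7.5 for 1 h at 28° C. EDTA stop, then TR-FRET acceptor/donor ratio read; percent of 1% DMSO control fitted sigmoidally for IC50.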

The test system of a further assay is TT cells. The experiment in a line: TT Cell Proliferation Assay (WST-8, 8 days). The format is cell-based. As to conditions: Homo sapiens, TT, 192 h, growth inhibition in TT cells, read-out: TT Cellular Activity. A digest of the protocol: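 TT cells, 6,000/well in RPMI-1640 with 10% FBS, attached 24 h, then exposed to compound at 5 μM down to 0.0005 μM final (0.5% DMSO) for 8 days at 37 °C. WST-8 added for 5 h, absorbance at 450 nm. IC50 calculated from the dilution series.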

T3 sequence (P35968 20-1356): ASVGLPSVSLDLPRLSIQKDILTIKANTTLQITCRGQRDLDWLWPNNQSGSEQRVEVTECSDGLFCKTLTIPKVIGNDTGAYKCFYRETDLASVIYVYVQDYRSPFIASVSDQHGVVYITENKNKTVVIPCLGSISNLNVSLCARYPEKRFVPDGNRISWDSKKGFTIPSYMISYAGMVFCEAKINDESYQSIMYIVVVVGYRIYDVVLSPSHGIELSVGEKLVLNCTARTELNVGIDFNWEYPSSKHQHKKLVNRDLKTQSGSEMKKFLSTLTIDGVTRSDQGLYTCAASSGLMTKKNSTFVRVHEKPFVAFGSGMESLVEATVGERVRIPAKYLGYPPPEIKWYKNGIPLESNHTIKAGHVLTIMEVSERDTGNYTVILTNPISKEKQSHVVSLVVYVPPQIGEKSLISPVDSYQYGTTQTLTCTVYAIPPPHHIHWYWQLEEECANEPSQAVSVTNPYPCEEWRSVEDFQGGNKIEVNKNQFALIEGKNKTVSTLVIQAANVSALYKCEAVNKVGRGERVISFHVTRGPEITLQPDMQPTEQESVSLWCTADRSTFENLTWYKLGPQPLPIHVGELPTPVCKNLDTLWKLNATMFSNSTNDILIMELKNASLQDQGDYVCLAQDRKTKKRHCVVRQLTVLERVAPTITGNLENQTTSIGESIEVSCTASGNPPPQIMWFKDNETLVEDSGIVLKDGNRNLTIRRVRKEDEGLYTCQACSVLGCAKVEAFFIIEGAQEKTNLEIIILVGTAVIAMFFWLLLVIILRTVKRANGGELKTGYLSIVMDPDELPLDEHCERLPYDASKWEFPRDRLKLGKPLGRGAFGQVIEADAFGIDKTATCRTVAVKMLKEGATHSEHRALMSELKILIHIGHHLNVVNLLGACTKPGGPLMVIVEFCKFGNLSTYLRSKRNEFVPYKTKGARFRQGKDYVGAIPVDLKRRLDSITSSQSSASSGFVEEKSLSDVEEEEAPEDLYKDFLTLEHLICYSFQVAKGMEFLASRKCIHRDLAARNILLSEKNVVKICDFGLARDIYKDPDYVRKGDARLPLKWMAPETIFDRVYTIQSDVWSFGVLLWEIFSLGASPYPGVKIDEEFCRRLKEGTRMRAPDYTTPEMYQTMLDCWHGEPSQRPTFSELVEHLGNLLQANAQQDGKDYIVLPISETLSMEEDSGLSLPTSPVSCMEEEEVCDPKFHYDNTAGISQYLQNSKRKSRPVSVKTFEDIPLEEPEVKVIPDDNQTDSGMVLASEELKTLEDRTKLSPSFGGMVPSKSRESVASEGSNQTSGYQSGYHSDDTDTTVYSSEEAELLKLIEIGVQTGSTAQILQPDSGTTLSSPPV
T1 sequence (P07949 29-1114): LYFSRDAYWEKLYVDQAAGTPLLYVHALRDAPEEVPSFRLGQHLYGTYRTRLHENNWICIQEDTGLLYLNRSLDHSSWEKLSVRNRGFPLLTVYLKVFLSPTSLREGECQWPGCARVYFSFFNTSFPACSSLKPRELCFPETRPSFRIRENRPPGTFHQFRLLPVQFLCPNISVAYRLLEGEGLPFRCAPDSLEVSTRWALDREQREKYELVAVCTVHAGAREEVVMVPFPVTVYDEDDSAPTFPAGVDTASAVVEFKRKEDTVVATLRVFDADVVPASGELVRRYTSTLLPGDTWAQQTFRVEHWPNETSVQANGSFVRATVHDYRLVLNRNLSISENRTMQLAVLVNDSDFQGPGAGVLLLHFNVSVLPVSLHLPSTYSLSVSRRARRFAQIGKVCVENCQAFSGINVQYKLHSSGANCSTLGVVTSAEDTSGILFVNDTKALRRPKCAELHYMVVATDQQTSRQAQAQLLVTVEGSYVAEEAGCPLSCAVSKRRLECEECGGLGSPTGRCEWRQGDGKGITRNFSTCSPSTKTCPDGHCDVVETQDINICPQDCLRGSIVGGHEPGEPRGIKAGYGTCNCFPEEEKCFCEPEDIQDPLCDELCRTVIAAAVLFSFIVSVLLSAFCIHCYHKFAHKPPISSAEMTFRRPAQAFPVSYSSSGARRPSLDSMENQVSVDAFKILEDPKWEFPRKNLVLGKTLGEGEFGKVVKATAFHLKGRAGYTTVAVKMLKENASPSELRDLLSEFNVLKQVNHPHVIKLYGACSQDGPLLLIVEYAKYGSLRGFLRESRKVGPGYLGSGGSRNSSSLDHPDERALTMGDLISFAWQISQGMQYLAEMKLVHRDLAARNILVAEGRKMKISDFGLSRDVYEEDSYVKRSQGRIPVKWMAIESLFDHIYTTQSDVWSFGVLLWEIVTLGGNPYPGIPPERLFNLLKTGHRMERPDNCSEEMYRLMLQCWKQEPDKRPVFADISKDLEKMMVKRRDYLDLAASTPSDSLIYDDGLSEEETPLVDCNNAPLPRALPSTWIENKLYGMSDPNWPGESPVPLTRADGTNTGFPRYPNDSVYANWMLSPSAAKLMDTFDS

With `Cn1cc(-c2cc(-c3cnc(N4C5CC6CC4CC(O)(C6)C5)cn3)c3c(C#N)cnn3c2)cn1` [Example 104, 4-(5-((1R,3S,5s,7s)-5-hydroxy-2-azaadamantan-2-yl)pyrazin-2-yl)-6-(1-methyl-1H-pyrazol-4-yl)pyrazolo[1,5-a]pyridine-3-carbonitrile], the IC50 against human RET kinase was not above 10 nM. Moreover, the GI50 at BAF3-KIF5B-RET cells is 10 to 50 nM.
`Cn1ccc(-c2cc(-c3ccc(N4C[C@@H]5C[C@@](O)(Cc6ccccn6)C[C@@H]5C4)nc3)c3c(C#N)cnn3c2)n1` [Example 105, 4-(6-((3aR,5r,6aS)-5-hydroxy-5-(pyridin-2-ylmethyl)hexahydrocyclopenta[c]pyrrol-2(1H)-yl)pyridin-3-yl)-6-(1-methyl-1H-pyrazol-3-yl)pyrazolo[1,5-a]pyridine-3-carbonitrile] yielded an IC50 against human RET kinase not above 10 nM. The GI50 at BAF3-KIF5B-RET cells lay within 10 to 50 nM.
In the case of `CC(C)(O)COc1cc(-c2ccc(N3C[C@H]4C[C@@H](NC(=O)c5ncccc5Cl)C[C@H]4C3)nc2)c2c(C#N)cnn2c1` [Example 106, 3-chloro-N-((3aR,5r,6aS)-2-(5-(3-cyano-6-(2-hydroxy-2-methylpropoxy)pyrazolo[1,5-a]pyridin-4-yl)pyridin-2-yl)octahydrocyclopenta[c]pyrrol-5-yl)picolinamide], the IC50 against human RET kinase is not above 10 nM. On BAF3-KIF5B-RET cells, the GI50 is not above 10 nM.
`Cn1cc(-c2cc(-c3cnc(N4C5CC6CC4CC(NC=O)(C6)C5)cn3)c3c(C#N)cnn3c2)cn1` [Example 107, N-((1R,3S,5s,7s)-2-(5-(3-cyano-6-(1-methyl-1H-pyrazol-4-yl)pyrazolo[1,5-a]pyridin-4-yl)pyrazin-2-yl)-2-azaadamantan-5-yl)formamide]: the IC50 on human RET kinase is not above 10 nM. In addition, at BAF3-KIF5B-RET cells, the GI50 was 10 to 50 nM.
On the same counts, the results for `Cn1cc(-c2cc(-c3cnc(N4C5CC6CC4CC(N)(C6)C5)cn3)c3c(C#N)cnn3c2)cn1` [Example 108, 4-(5-((1R,3S,5s,7s)-5-amino-2-azaadamantan-2-yl)pyrazin-2-yl)-6-(1-methyl-1H-pyrazol-4-yl)pyrazolo[1,5-a]pyridine-3-carbonitrile] are not above 10 nM and 10 to 50 nM.
`Cn1cc(-c2cc(-c3cnc(N4C5CC6CC4CC(NC(=O)OC(C)(C)C)(C6)C5)cn3)c3c(C#N)cnn3c2)cn1` [Example 109, tert-butyl ((1R,3S,5s,7s)-2-(5-(3-cyano-6-(1-methyl-1H-pyrazol-4-yl)pyrazolo[1,5-a]pyridin-4-yl)pyrazin-2-yl)-2-azaadamantan-5-yl)carbamate] came in with an IC50 at human RET kinase not above 10 nM. Moreover, at BAF3-KIF5B-RET cells, the GI50 was not above 10 nM.
Take `Cn1cc(-c2cc(-c3cnc(N4C[C@@H]5C[C@@](C)(NC(=O)c6ncccc6F)C[C@@H]5C4)cn3)c3c(C#N)cnn3c2)cn1` [Example 142, N-((3aR,5s,6aS)-2-(5-(3-cyano-6-(1-methyl-1H-pyrazol-4-yl)pyrazolo[1,5-a]pyridin-4-yl)pyrazin-2-yl)-5-methyloctahydrocyclopenta[c]pyrrol-5-yl)-3-fluoropicolinamide]: the results for the IC50 against human RET kinase, on human KDR kinase and with TT cells were not above 10 nM, 10 to 50 nM and not above 10 nM, respectively.
For `Cn1ccc(-c2cc(-c3ccc(N4C[C@@H]5C[C@@](C)(NS(=O)(=O)c6c(F)cccc6Cl)C[C@@H]5C4)nc3)c3c(C#N)cnn3c2)n1` [Example 178, 2-chloro-N-((3aR,5s,6aS)-2-(5-(3-cyano-6-(1-methyl-1H-pyrazol-3-yl)pyrazolo[1,5-a]pyridin-4-yl)pyridin-2-yl)-5-methyloctahydrocyclopenta[c]pyrrol-5-yl)-6-fluorobenzenesulfonamide], the IC50 was not above 10 nM at human RET kinase, 10 to 50 nM against human KDR kinase and not above 10 nM with TT cells.
Take `Cn1ccc(-c2cc(-c3ccc(N4C[C@@H]5CN(S(=O)(=O)c6c(F)cccc6Cl)C[C@@H]5C4)nc3)c3c(C#N)cnn3c2)n1` [Example 179, 4-(6-((3aR,6aS)-5-((2-chloro-6-fluorophenyl)sulfonyl)hexahydropyrrolo[3,4-c]pyrrol-2(1H)-yl)pyridin-3-yl)-6-(1-methyl-1H-pyrazol-3-yl)pyrazolo[1,5-a]pyridine-3-carbonitrile]: the IC50 is 10 to 50 nM on human RET kinase, 10 to 50 nM on human KDR kinase and not above 10 nM in the assay with TT cells.
In the case of `Cn1cc(-c2cc(-c3cnc(N4C[C@@H]5CN(S(=O)(=O)c6c(F)cccc6Cl)C[C@@H]5C4)cn3)c3c(C#N)cnn3c2)cn1` [Example 182, 4-(5-((3aR,6aS)-5-((2-chloro-6-fluorophenyl)sulfonyl)hexahdropyrrolo[3,4-c]pyrrol-2(1H)-yl)pyrazin-2-yl)-6-(1-methyl-1H-pyrazol-4-yl)pyrazolo[1,5-a]pyridine-3-carbonitrile], the IC50 is not above 10 nM at human RET kinase, 10 to 50 nM against human KDR kinase and not above 10 nM in the assay on TT cells.
Consider `COc1ccc(NC(=O)N[C@H]2[C@@H]3CN(c4ccc(-c5cc(OCC(C)(C)O)cn6ncc(C#N)c56)cn4)C[C@@H]32)cn1` [Example 183, 1-((1R,5S,6s)-3-(5-(3-cyano-6-(2-hydroxy-2-methylpropoxy)pyrazolo[1,5-a]pyridin-4-yl)pyridin-2-yl)-3-azabicyclo[3.1.0]hexan-6-yl)-3-(6-methoxypyridin-3-yl)urea], for which the IC50 on human RET kinase is 10 to 50 nM; on human KDR kinase it was more than 100 nM; in the assay with TT cells it was more than 100 nM.
Turning to `CC(C)(O)COc1cc(-c2ccc(N3C[C@@H]4[C@@H](CNS(=O)(=O)c5c(F)cccc5Cl)[C@@H]4C3)nc2)c2c(C#N)cnn2c1` [Example 184, 2-chloro-N-(((1R,5S,6r)-3-(5-(3-cyano-6-(2-hydroxy-2-methylpropoxy)pyrazolo[1,5-a]pyridin-4-yl)pyridin-2-yl)-3-azabicyclo[3.1.0]hexan-6-yl)methyl)-6-fluorobenzenesulfonamide], the IC50 is 10 to 50 nM against human RET kinase, more than 100 nM against human KDR kinase and 50 to 100 nM in the assay with TT cells.
On the same counts, the results for `Cc1cccc(Cl)c1C(=O)NC[C@@H]1[C@H]2CN(c3ccc(-c4cc(-c5cnn(C)c5)cn5ncc(C#N)c45)cn3)C[C@@H]12` [Example 185, 2-chloro-N-(((1R,5S,6s)-3-(5-(3-cyano-6-(1-methyl-1H-pyrazol-4-yl)pyrazolo[1,5-a]pyridin-4-yl)pyridin-2-yl)-3-azabicyclo[3.1.0]hexan-6-yl)methyl)-6-methylbenzamide] are not above 10 nM, not above 10 nM and 10 to 50 nM.
On the same counts, the results for `Cn1cc(-c2cc(-c3ccc(N4C[C@@H]5[C@@H](CNC(=O)c6ncccc6C(F)(F)F)[C@@H]5C4)nc3)c3c(C#N)cnn3c2)cn1` [Example 186, N-(((1R,5S,6s)-3-(5-(3-cyano-6-(1-methyl-1H-pyrazol-4-yl)pyrazolo[1,5-a]pyridin-4-yl)pyridin-2-yl)-3-azabicyclo[3.1.0]hexan-6-yl)methyl)-3-(trifluoromethyl)picolinamide] are not above 10 nM, not above 10 nM and not above 10 nM.
Take `CC(C)(O)COc1cc(-c2ccc(N3C[C@@H]4C[C@@](C)(NS(=O)(=O)c5c(F)cccc5Cl)C[C@@H]4C3)nc2)c2c(C#N)cnn2c1` [Example 197, 2-chloro-N-((3aR,5s,6aS)-2-(5-(3-cyano-6-(2-hydroxy-2-methylpropoxy)pyrazolo[1,5-a]pyridin-4-yl)pyridin-2-yl)-5-methyloctahydrocyclopenta[c]pyrrol-5-yl)-6-fluorobenzenesulfonamide]: the IC50 on human RET kinase is not above 10 nM; against human KDR kinase, 10 to 50 nM; in the assay on TT cells it was 10 to 50 nM.
For the molecule `Cn1ccc(-c2cc(-c3ccc(N4C[C@@H]5C[C@@](C)(NC(=O)c6ncccc6C#N)C[C@@H]5C4)nc3)c3c(C#N)cnn3c2)n1` [Example 198, 3-cyano-N-((3aR,5s,6aS)-2-(5-(3-cyano-6-(1-methyl-1H-pyrazol-3-yl)pyrazolo[1,5-a]pyridin-4-yl)pyridin-2-yl)-5-methyloctahydrocyclopenta[c]pyrrol-5-yl)picolinamide], the results for the IC50 against human RET kinase, at human KDR kinase and in the assay on TT cells were 10 to 50 nM, 50 to 100 nM and 10 to 50 nM, respectively.

Values taken from patent US20220220128A1, “HETEROCYCLIC COMPOUNDS AS KINASE INHIBITORS, COMPOSITIONS COMPRISING THE HETEROCYCLIC COMPOUND, AND METHODS OF USE THEREOF” (JS Innopharm (Shanghai) Ltd, priority 2019, published 2022).
